Like-named read-outs stand apart in the source and are kept apart here.
Target: T1, hmGluR1 receptor (Homo sapiens, UniProt Q13255)
T1 construct: expressed in transfected cells
Assay: IC50 determination: intracellular calcium mobilization (FLIPR) upon Quisqualate stimulation in CHO cells stably expressing hmGluR1
Assay type: cell-based
Settings: against Quisqualate 1 μM (EC80)
In short: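 CHO cells stably expressing hmGluR1 were kept overnight in DMEM high glucose with GPT and 1 mM pyruvate, then loaded 2 h with Calcium 3 dye.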

[1] = class symbols, read-out: mGIuR 1 IC50
[2] = FLIPR calcium mobilization, read-out: IC50 Class
[3] = FLIPR calcium mobilization, read-out: mGluR1 IC50

T1 sequence (Q13255 19-1194): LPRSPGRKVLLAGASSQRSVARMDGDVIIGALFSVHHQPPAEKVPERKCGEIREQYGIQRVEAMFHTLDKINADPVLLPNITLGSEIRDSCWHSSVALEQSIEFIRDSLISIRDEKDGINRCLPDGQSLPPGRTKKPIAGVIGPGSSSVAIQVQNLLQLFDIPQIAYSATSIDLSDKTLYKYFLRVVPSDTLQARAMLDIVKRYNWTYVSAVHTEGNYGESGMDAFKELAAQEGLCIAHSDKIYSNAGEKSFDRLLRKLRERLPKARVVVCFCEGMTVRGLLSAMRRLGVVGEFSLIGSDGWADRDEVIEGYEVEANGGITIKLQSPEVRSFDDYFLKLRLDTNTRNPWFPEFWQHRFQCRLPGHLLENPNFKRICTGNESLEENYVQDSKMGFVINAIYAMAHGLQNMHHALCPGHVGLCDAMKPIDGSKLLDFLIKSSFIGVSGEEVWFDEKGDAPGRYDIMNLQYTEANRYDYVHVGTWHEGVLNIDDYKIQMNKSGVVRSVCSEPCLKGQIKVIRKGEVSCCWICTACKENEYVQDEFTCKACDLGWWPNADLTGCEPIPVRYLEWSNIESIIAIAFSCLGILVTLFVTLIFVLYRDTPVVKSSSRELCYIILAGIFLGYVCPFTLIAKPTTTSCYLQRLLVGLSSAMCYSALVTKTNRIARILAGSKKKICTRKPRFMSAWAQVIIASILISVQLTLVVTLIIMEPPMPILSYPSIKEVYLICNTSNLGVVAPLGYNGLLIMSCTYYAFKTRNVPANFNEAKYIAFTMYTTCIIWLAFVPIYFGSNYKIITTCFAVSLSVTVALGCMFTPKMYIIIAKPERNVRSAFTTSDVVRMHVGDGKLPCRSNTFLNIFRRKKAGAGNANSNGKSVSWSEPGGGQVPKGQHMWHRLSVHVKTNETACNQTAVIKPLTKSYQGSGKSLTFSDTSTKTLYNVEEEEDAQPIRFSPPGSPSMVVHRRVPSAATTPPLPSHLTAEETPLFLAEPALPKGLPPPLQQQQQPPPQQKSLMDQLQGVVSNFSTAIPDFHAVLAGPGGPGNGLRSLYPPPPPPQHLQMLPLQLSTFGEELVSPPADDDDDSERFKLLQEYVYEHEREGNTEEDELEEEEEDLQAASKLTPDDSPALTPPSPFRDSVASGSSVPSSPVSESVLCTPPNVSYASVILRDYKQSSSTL

Row | Compound | IC50 [1] [nM] | IC50 [2] [nM] | further results
1 | CN(C)c1ccnc2sc3c(=O)n(-c4ccc5c(c4)CC=C5)cnc3c12 [7BL] | < 50 | – | –
2 | CCN(CC)C(=O)N1CCN(c2ccnc3sc4c(=O)n(C5CCCCC5)cnc4c23)CC1 [compound 64] | > 1000 | – | –
3 | O=c1c2sc3nccc(NCCCO)c3c2ncn1-c1ccc2c(c1)OCCO2 [28CI] | – | < 50 | –
4 | Cc1ccc(-n2cnc3c(sc4nccc(N(C)C)c43)c2=O)cc1I [7DY] | 50 to 150 | – | –
5 | CN(C)c1ccnc2sc3c(=O)n(-c4ccc5c(c4)OCCO5)cnc3c12 [7AC] | < 50 | – | IC50 [3]: 1.84 nM
6 | Cc1ccc(-n2cnc3c(sc4nccc(NC5CCCCC5)c43)c2=O)cc1 [28DF] | – | > 1000 | –
7 | O=c1c2sc3nccc(NCCO)c3c2ncn1-c1ccc(Cl)cc1 [28GB] | – | < 50 | –
8 | CCCNc1ccnc2sc3c(=O)n(C4CCCCC4)cnc3c12 [28Q] | 50 to 150 | – | –
9 | CN(C)c1ccnc2sc3c(=O)n(C4CCOCC4)cnc3c12 [15E] | 50 to 150 | – | –
10 | O=c1c2sc3nccc(NC4CCCCC4)c3c2ncn1-c1ccc(Cl)cc1 [28B] | > 1000 | – | –
11 | COc1ccnc2sc3c(=O)n(-c4ccc(C)cc4)cnc3c12 [25C] | 50 to 150 | – | –
12 | Cc1ccc(-n2cnc3c(sc4nccc(NCCO)c43)c2=O)cc1 [28AV] | < 50 | – | –
13 | CNc1c([N+](=O)[O-])cnc2sc3c(=O)n(C4CCCCC4)cnc3c12 [compound 52] | 150 to 1000 | – | –
14 | CCCc1ccc(-n2cnc3c(sc4nccc(N(C)C)c43)c2=O)cc1 [7BK] | 150 to 1000 | – | –
15 | O=c1c2sc3nccc(NC4CC4)c3c2ncn1-c1ccc2c(c1)OCCO2 [28CK] | – | < 50 | –
16 | CN(C)c1ccnc2sc3c(=O)n(-c4cccc(F)c4)cnc3c12 [28CP] | – | < 50 | –
17 | CN(C)c1ccnc2sc3c(=O)n(Cc4cccs4)cnc3c12 [15I] | 150 to 1000 | – | –
18 | O=c1c2sc3nccc(N4CCCC4)c3c2ncn1-c1ccc(F)cc1 [28GW] | – | 150 to 1000 | –
19 | COCCCNc1ccnc2sc3c(=O)n(-c4ccc(O)cc4)cnc3c12 [28HW] | – | < 50 | –

Row | Compound | IC50 [1] [nM] | IC50 [2] [nM] | further results
20 | C=C(C)CNc1ccnc2sc3c(=O)n(-c4ccc(OC)cc4)cnc3c12 [28FB] | – | < 50 | –
21 | Cc1ccc(-n2cnc3c(sc4nccc(NCC5CC5)c43)c2=O)cc1 [28AY] | 150 to 1000 | – | –
22 | CN(CC(O)CO)c1ccnc2sc3c(=O)n(-c4ccc(Br)cc4)cnc3c12 (stereo not drawn) [28HU] | – | < 50 | –
23 | CCc1ccc(-n2cnc3c(sc4nccc(NC)c43)c2=O)cc1 [7CC] | < 50 | – | –
24 | CC(=O)c1ccnc2sc3c(=O)n(-c4ccc(Cl)cc4)cnc3c12 [compound 184] | – | 50 to 150 | –
25 | CN(C)c1ccnc2sc3c(=O)n(-c4ccc5c(c4)oc(=O)n5C)cnc3c12 [7AR] | > 1000 | – | –
26 | CC(C)(O)c1ccnc2sc3c(=O)n(-c4ccc(Cl)cc4)cnc3c12 [compound 186] | – | > 1000 | –
27 | CN(C)c1ccnc2sc3c(=O)n(-c4nncs4)cnc3c12 [15X] | > 1000 | – | –
28 | CNc1ccnc2sc3c(=O)n(-c4ccc(F)cc4)cnc3c12 [28IB] | – | < 50 | –
29 | O=c1c2sc3nccc(NC4CC4)c3c2ncn1-c1ccc2c(c1)CCO2 [28CE] | – | < 50 | –
30 | Cc1ccc(-n2cnc3c(sc4ncc(Br)c(NCCN)c43)c2=O)cc1 [28FM] | – | 150 to 1000 | –
31 | O=c1c2sc3nccc(NC4CC4)c3c2ncn1-c1ccc2occc2c1 [28BI] | – | < 50 | –
32 | CN(C)c1c([N+](=O)[O-])cnc2sc3c(=O)n(C4CCCCC4)cnc3c12 [compound 51] | < 50 | – | –
33 | CN(C)c1ccnc2sc3c(=O)n(C4CCCC4)cnc3c12 [7W] | < 50 | – | –
34 | CCN(C)c1ccnc2sc3c(=O)n(-c4ccc(OC)cc4F)cnc3c12 [28BW] | – | < 50 | –
35 | Cc1ccc(-n2cnc3c(sc4nccc(NC5CC5)c43)c2=O)cc1 [28AP] | < 50 | – | –
36 | CN(C)c1ccnc2sc3c(=O)n(CCO)cnc3c12 [15A] | > 1000 | – | –
37 | Cc1cc(N(C)C)c2c(n1)sc1c(=O)n(-c3cccnc3)cnc12 [7DD] | 150 to 1000 | – | –
38 | COc1ccc(-n2cnc3c(sc4nccc(N(C)C)c43)c2=O)cc1Cl [7T] | 50 to 150 | – | –

Row | Compound | IC50 [1] [nM] | IC50 [2] [nM] | further results
39 | C=C(C)CNc1ccnc2sc3c(=O)n(-c4ccc(OC)c(F)c4)cnc3c12 [28FE] | – | 50 to 150 | –
40 | Cc1ccc(-n2cnc3c(sc4nc(C)cc(N(C)C)c43)c2=O)cc1 [7CK] | < 50 | – | –
41 | COc1ccc(-n2cnc3c(sc4nc(C)cc(N(C)C)c43)c2=O)cc1F [7CL] | 50 to 150 | – | –
42 | CN(C)c1ccnc2sc3c(=O)n(-c4ccccc4Cl)cnc3c12 [7F] | 50 to 150 | – | –
43 | CCc1ccc(-n2cnc3c(sc4nccc(N(C)CC)c43)c2=O)cc1 [28BS] | – | < 50 | –
44 | Cc1ccc(-n2cnc3c(sc4nc(NS(C)(=O)=O)cc(N(C)C)c43)c2=O)cc1 [28FL] | – | 150 to 1000 | –
45 | Cc1nn(C)c(C)c1-n1cnc2c(sc3nccc(N(C)C)c32)c1=O [15AC] | > 1000 | – | –
46 | C#CCn1cnc2c(sc3nccc(N(C)C)c32)c1=O [7BH] | > 1000 | – | –
47 | CN(C)c1ccnc2sc3c(=O)n(C4CCCC(C(=O)O)C4)cnc3c12 (stereo not drawn) [28EJ] | – | > 1000 | –
48 | CNc1c(Cl)cnc2sc3c(=O)n(-c4ccc(OC)cc4)cnc3c12 [compound 198] | – | < 50 | –
49 | CN(C)c1ccnc2sc3c(=O)n(-c4ccc(Br)c(C(F)(F)F)c4)cnc3c12 [7DS] | 150 to 1000 | – | –
50 | C=CCN(C)c1ccnc2sc3c(=O)n(-c4ccc(C)cc4)cnc3c12 [28AC] | < 50 | – | –
51 | CN(C)c1c(C(N)=O)cnc2sc3c(=O)n(C4CCCCC4)cnc3c12 [compound 49] | > 1000 | – | –
52 | C=CCn1cnc2c(sc3nccc(N(C)C)c32)c1=O [7AB] | 150 to 1000 | – | –
53 | O=c1c2sc3nccc(NC4CCC4)c3c2ncn1C1CCCCC1 [28W] | 150 to 1000 | – | –
54 | COc1ccc(-n2cnc3c(sc4nccc(N(C)C)c43)c2=O)cn1 [7BW] | < 50 | – | –
55 | C#CCNc1ccnc2sc3c(=O)n(-c4ccc(OC)cc4)cnc3c12 [28DQ] | – | < 50 | –
56 | COc1cc(N(C)C)c2c(n1)sc1c(=O)n(-c3ccc(C)cc3)cnc12 [compound 58] | < 50 | – | –
57 | CCNc1ccnc2sc3c(=O)n(-c4ccc(OC)cc4C)cnc3c12 [28BO] | – | < 50 | –

Continued, in another order:

Row | IC50 [1] [nM] | IC50 [2] [nM] | Compound | further results
58 | < 50 | – | C#CCNc1ccnc2sc3c(=O)n(-c4ccc(C)cc4)c(C)nc3c12 [113K] | –
59 | – | > 1000 | CN(C)c1cccc2sc3c(=O)n(-c4cccc(Cl)c4Cl)cnc3c12 [103I] | –
60 | – | < 50 | O=c1c2sc3nccc(NC4CC4)c3c2ncn1-c1ccc2scnc2c1 [131J] | –
61 | – | < 50 | COCCNc1ncnc2sc3c(=O)n(-c4ccc(C)cc4)cnc3c12 [95DJ] | –
62 | 150 to 1000 | – | CCNc1ncnc2sc3c(=O)n(-c4ccc(C)nc4)cnc3c12 [95AB] | –
63 | 150 to 1000 | – | Cc1ccc(-n2cnc3c(sc4nc(C(C)C)cc(N(C)C)c43)c2=O)cc1 [87A] | –
64 | – | < 50 | CNc1ncnc2sc3c(=O)n(-c4ccc(Cl)cc4)cnc3c12 [95DB] | –
65 | – | < 50 | COc1ccc(-n2cnc3c(sc4nc(Cl)cc(N(C)C)c43)c2=O)cc1 [57C] | –
66 | – | 150 to 1000 | COc1ccc(-n2cnc3c(sc4ncnc(Nc5ccc(Cl)cc5)c43)c2=O)cc1 [190E] | –
67 | – | < 50 | O=c1c2sc3ncnc(NC4CC4)c3c2ncn1-c1ccc2c(c1)CCO2 [95DK] | –
68 | < 50 | – | CCNc1ccnc2sc3c(=O)n(-c4ccc5ncsc5c4)cnc3c12 [131C] | –
69 | > 1000 | – | O=c1c2sc3nccc(N4CCN(CC5CC5)CC4)c3c2ncn1C1CCCCC1 [61B] | –
70 | > 1000 | – | COc1ccc(Cn2c3nccc(N(C)C)c3c3ncn(-c4ccc(C)cc4)c(=O)c32)cc1 [134H] | –
71 | – | < 50 | C=CCNc1ncnc2sc3c(=O)n(-c4ccc(Cl)cc4)cnc3c12 [95BP] | IC50 [3]: 1.31 nM
72 | – | > 1000 | Cc1ccc(-n2cnc3c(sc4nccc(CN(C)C)c43)c2=O)cc1 [169A] | –
73 | < 50 | – | CNc1ccnc2sc3c(=O)n(-c4ccc(C)cc4)c(C)nc3c12 [113G] | –
74 | 150 to 1000 | – | Cc1ccc(-n2cnc3c4c(N(C)C)ccnc4n(C)c3c2=O)cc1 [134A] | –
75 | – | > 1000 | COc1ccc(-n2cnc3c(sc4ncnc(Nc5ccccc5Cl)c43)c2=O)cc1 [190N] | –
76 | – | > 1000 | CN(C)c1cccc2sc3c(=O)n(-c4cccc(Cl)c4)cnc3c12 [103H] | –
77 | – | < 50 | CCc1ccnc2sc3c(=O)n(-c4ccc(Cl)cc4)cnc3c12 [29K] | –

Row | IC50 [1] [nM] | IC50 [2] [nM] | Compound | further results
78 | – | < 50 | C=CCOc1ccnc2sc3c(=O)n(-c4ccc(Cl)cc4)cnc3c12 [66F] | –
79 | – | > 1000 | O=c1c2sc3ncnc(Nc4ccccc4)c3c2ncn1-c1ccc2c(c1)OCO2 [95GG] | –
80 | 150 to 1000 | – | CCNc1ncnc2sc3c(=O)n(-c4ccc(OC(F)(F)F)cc4)cnc3c12 [95V] | –
81 | > 1000 | – | O=c1c2sc3nccc(NCCc4ccccc4)c3c2ncn1C1CCCCC1 [72F] | –
82 | 50 to 150 | – | CCc1ccnc2sc3c(=O)n(C4CCCCC4)cnc3c12 [29C] | –
83 | – | 50 to 150 | COc1ccc(Nc2ncnc3sc4c(=O)n(-c5ccc(OC)cc5)cnc4c23)cc1 [190B] | –
84 | – | < 50 | CN(c1ncnc2sc3c(=O)n(-c4ccc(Cl)cc4)cnc3c12)C1CC1 [95DU] | –
85 | – | 150 to 1000 | Cc1ccc(-n2cnc3c(sc4ncnc(NC5CCC5)c43)c2=O)cc1 [95DH] | –
86 | > 1000 | – | CN(C)c1ccnc2sc3c(=O)n(NC(=O)C4CCC4)c(C4CCC4)nc3c12 [65D] | –
87 | – | < 50 | COc1ccc(-n2cnc3c(sc4nc(N)cc(N)c43)c2=O)cc1 [59H] | –
88 | > 1000 | – | CN(C)c1ccnc2c1c1ncn(C3CCCCC3)c(=O)c1n2C [134G] | –
89 | – | 150 to 1000 | COc1ccc(-n2cnc3c(sc4ncnc(Nc5nccs5)c43)c2=O)cc1 [190D] | –
90 | – | 150 to 1000 | COc1ccc(Nc2ncnc3sc4c(=O)n(-c5ccccc5)cnc4c23)cc1 [95GI] | –
91 | – | < 50 | O=c1c2sc3ncnc(NC4CC4)c3c2ncn1-c1ccc2scnc2c1 [95BA] | –
92 | > 1000 | – | O=C(Nc1ccnc2sc3c(=O)n(C4CCCCC4)cnc3c12)c1ccccc1 [73C] | –
93 | > 1000 | – | CN(C)c1ccnc2c1c1ncn(-c3ccc4ncsc4c3)c(=O)c1n2C [134E] | –
94 | < 50 | – | C#CCNc1ccnc2sc3c(=O)n(C4CCCCC4)cnc3c12 [72G] | –
95 | – | 150 to 1000 | CNc1cccc2sc3c(=O)n(-c4ccc(Cl)cc4)cnc3c12 [103R] | –
96 | < 50 | – | Cc1ccc(-n2c(C)nc3c(sc4nccc(N(C)C)c43)c2=O)cc1 [113A] | –
97 | – | 150 to 1000 | CC(=O)NN(C)c1ccnc2sc3c(=O)n(-c4ccc(C)cc4)cnc3c12 [73I] | –

Source: patent publication US7989464B2, “mGluR1 antagonists as therapeutic agents” (Schering Corporation, priority 2004, dated 2011)
